# Reference: PubChem BioAssay (NCI)
#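 Step 1: Grow cells in 96-well plates. Step 2: Expose to compound for 48 hours at 5 concentrations. Step 3: Interpolate endpoints linearly; if unreached, use highest concentration. The concentration for full growth arrest is given as TGI.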
# Columns and labels:
# Experiment in all cases: NCI anticancer screen, dose series, 48 h
# EKVX NSCLC = tested on: EKVX NSCLC
# A549 NSCLC = tested on: A549 NSCLC
# CCRF-CEM leukemia = tested on: CCRF-CEM leukemia
# SW-620 colon = tested on: SW-620 colon
# NCI-H23 lung = tested on: NCI-H23 lung
# MCF7 breast = tested on: MCF7 breast
# MALME-3M melanoma = tested on: MALME-3M melanoma
# COLO 205 colon = tested on: COLO 205 colon
# BT-549 breast = tested on: BT-549 breast
# NCI-H226 lung = tested on: NCI-H226 lung
SMILES,TGI (EKVX NSCLC) [µM],TGI (A549 NSCLC) [µM],TGI (CCRF-CEM leukemia) [µM],TGI (SW-620 colon) [µM],TGI (NCI-H23 lung) [µM],TGI (MCF7 breast) [µM],TGI (MALME-3M melanoma) [µM],TGI (COLO 205 colon) [µM],TGI (BT-549 breast) [µM],TGI (NCI-H226 lung) [µM]
COc1cc(S(=O)(=O)Nc2ccc(-c3csc(N4C(=O)C(Cl)C4c4cccc(Oc5ccccc5)c4)n3)cc2)ccc1Cl (stereo not given),52,> 100,> 100,> 100,36.9,> 100,> 100,45.5,81.5,39.8
CNC(=O)c1cc2nc3ccccc3c(=O)n2c2ccccc12,> 10,> 10,> 10,> 10,> 10,> 10,> 10,> 10,> 10,> 10
C[C@@H](NC(=O)[C@@H]1C[C@]1(C)CO)c1cccc2ccccc12,> 100,> 100,> 100,> 100,> 100,> 100,> 100,> 100,> 100,> 100
CCOC(=O)C1(C#N)C2(C#N)C(N)=NC(ON=C(C)C)(ON=C(C)C)C12C#N (stereo not given),> 100,> 100,> 100,> 100,> 100,> 100,> 100,> 100,> 100,> 100
C=C1C(=O)[C@]23C[C@H]1C[C@@H](O)[C@H]2[C@]1(COC3=O)[C@@H](OC(C)=O)CC[C@@](C)(COC(C)=O)[C@H]1C=O,> 50,> 50,15.1,18.7,> 50,> 50,27,16.4,> 50,19
O=C(/C=C/c1ccc2c(c1)OCO2)NCCc1ccco1,> 100,> 100,> 100,> 100,> 100,> 100,> 100,> 100,> 100,> 100
COC(=O)c1ccccc1NC(=S)NN(C)C,> 100,> 100,> 100,> 100,> 100,> 100,> 100,> 100,> 100,> 100
CC(C)(C)c1cc(C(=O)C2Cc3ccccc3C(=O)O2)cc(C(C)(C)C)c1O (stereo not given),25.9,54.4,34.7,50.4,35.8,38.6,29.6,33.1,42.6,35.5
Oc1cc(O)c2c(c1)O[C@H](c1cc(O)c(O)c(O)c1)[C@@H](O)C2,94.9,> 100,43.4,32.7,58.2,35.2,> 100,35.8,51.5,86.5
COc1cc(NS(C)(=O)=O)ccc1NCc1cnc2ccc3[nH]cccc3c12,57.7,> 96.3,59.5,> 92,55,59,43.4,31.3,52.6,35.6
COc1cc(OCc2nc3cc(C(F)(F)F)ccc3nc2-c2ccccc2)cc(OC)c1OC,> 100,> 100,> 100,> 100,> 100,> 100,> 100,> 100,> 100,> 100
c1ccc(C(c2cccc3c2ccc2ccccc23)C(c2ccccc2)c2cccc3c2ccc2ccccc23)cc1 (stereo not given),> 100,> 100,> 100,> 100,> 100,> 100,> 100,> 100,> 100,> 100
CCCCC(=C=C(C)CO)C1CCCN1C(=O)OC(C)(C)C (stereo not given),44,48.1,33.2,89.8,46.8,43.5,28.2,32.9,31.8,33.9
